Measured values: US6986881B1, “Identification of compounds that modify transcriptional responses to hypoxia” (Dana-Farber Cancer Institute, Inc., priority 1999, dated 2006)
No end group written: not given here.

Experiments:
[1] = system: Hep3B cells, Epo-luciferase reporter; assay: Epo-luciferase hypoxia-inducible reporter assay; format: cell-based; settings: overproduction of polypeptide; 1% oxygen 18 hours
Procedure: FIG. 2A is a graph showing the results of luciferase and β-galactosidase assays, in which Hep3B cells were cotransfected with an Epo-luciferase reporter (100 ng), pCMV-LacZ (100 ng), and the indicated expression plasmids (300 ng). Cells were subsequently exposed to either ambient (Normoxia, stippled bars) or 1% (Hypoxia, solid bars) oxygen for 18 hours prior to assay. The results are expressed as corrected relative light units (RLU, mean of three independent transfections ±S.D.).
(§1) Reporter assays. Luciferase and β-galactosidase assays were performed as previously described (Bhattacharya et al., Genes Dev. 13:64–75, 1999). In all cases, luciferase activity was corrected for β-galactosidase activity as an internal control for transfection efficiency and global changes in transcriptional activity. Results are expressed as corrected relative light units (RLU). For each reporter experiment, at least two independent experiments were performed.
(§2) Hypoxia. Hypoxia was achieved by incubating cells in a humidified environment at 37° C. in a Cellstar three gas incubator (Harris) maintained at 10% CO2 and 1% O2. Accurate O2 and CO2 regulation was periodically verified with a Fryrite gas analyzer (Bacharach).

[2] = system: MDA-MB435S cells; assay: Nude mouse xenograft tumor model, MDA-MB435S; format: in vivo, nude mice; settings: MDA-MB435S cells expressing the polypeptide, versus Gal4 alone or Gal4-mutant
Procedure: FIG. 3B is a graph showing results of the experiments described in reference to FIG. 3A for MDA-MB435S cells.
(§3) Cell culture and retroviral infection. Tumor cell lines were obtained from the ATCC, and were cultured in DMEM supplemented with 10% FBS, penicillin, streptomycin, and L-glutamine (Gibco-BRL). Cells in logarithmic growth phase were serially infected 12 hours apart with VSV-G pseudotyped pMMP-Gal4 retroviruses to achieve a final MOI of 5 or 10, depending on the experiment. […] For pBABE-puro-VP16 or pBABE-puro-HIF-VP16, cells were infected at an MOI of <1 and selected with puromycin (2 μg/ml) for 4 days. Cells were allowed to recover for 1 day and then infected at an MOI of 5 with pMMP-Gal4 retroviruses.
Xenograft tumor model. Nude mice (Taconic) were obtained at 6–8 weeks of age and allowed to acclimate for 1 week prior to tumor implantation. Tumor cells were allowed to recover for at least 48 hours after retroviral infection prior to implantation into nude mice. The indicated number of tumor cells was injected subcutaneously and bilaterally into the flanks of mice. Tumors were measured with calipers, and tumor volume was calculated as 0.5×L×W^2. For each cell line, at least two independent experiments were performed. […]

[3] = system: RAR; assay: Gal4-luciferase reporter, p300/CBP dependent transactivation (Gal4-RAR); format: cell-based; settings: TAD-C polypeptide overexpression, Hep3B cells
Procedure: (§4) FIG. 2B is a graph showing the effect of TAD-C expression on p300/CBP dependent transactivation. Hep3B cells were cotransfected with the indicated thioredoxin-constrained fusion protein expression plasmids (300 ng), the indicated Gal4-fusion proteins (20 ng), Gal4-luciferase reporter (100 ng), and pCMV-LacZ (50 ng). Where indicated, cells were exposed to hypoxia for 18 hours. The results are expressed as corrected RLU (mean of three independent transfections ±S.D.).
as §1

[4] = target: T1, GST-CH1 (amino acids 302–443 of p300) (Homo sapiens, UniProt Q09472); assay: In vitro protein binding assay of IVT Gal4-fused HIF-1α fragments to GST-CH1; settings: Gal4 fusion, translated in vitro
T1 construct: made in house; host or cells: bacteria
Source text: One fifth of the total IVT product used for each binding assay is indicated (Input), along with the amount bound by GST-CH1 (Bound).
The detailed structural requirements for p300/CBP binding to HIF-1α were mapped by in vitro assays utilizing a series of GST-fused deletion mutants centered around the CH1 domain of p300, the primary HIF-1α interacting unit of that protein (Arany et al., Proc. Natl. Acad. Sci. U.S.A. 93:12969–12973, 1996; Kallio et al., EMBO J. 17:6573–6586, 1998). These mutant fusion proteins were assayed for binding to full length, iii vitro translated HIF-1α a zinc-dependent process (FIG. 1B). […] To map the minimal p300-binding domain of HIF-1α, a series of Gal4-fused truncation mutants of the C-terminus were generated. These Gal4 fusion proteins were translated in vitro and probed for their ability to bind to GST-CH1 (amino acids 302–443).
In vitro translation and in vitro protein binding assays. Except where noted, all reagents were from Sigma. In vitro transcription/translation (IVT) was performed in the presence of ^35S-methionine (NEN) using T3 or T7 polymerase coupled with rabbit reticulocyte lysates (TNT, Promega) according to the manufacturer's instructions. GST fusion proteins were produced in, and purified from, bacteria, and binding of IVT proteins was performed as previously described (Grossman et al., Mol. Cell. 2:405–415, 1998). […]

[5] = system: HepG2 cells; assay: Cell death by flow cytometry (Annexin V staining and vital dye exclusion); format: cell-based; settings: for cell survival: versus Gal4 alone
Procedure: FIG. 2D is a graph showing the levels of cell death in an experiment in which HepG2 cells were infected at an MOI of 5 with retrovirus encoding the indicated Gal4 fusion proteins. Cells were exposed to either ambient or 1% oxygen for 36 hours, and then assayed for cell death by flow cytometric analysis using Annexin V staining and vital dye exclusion. The results are expressed as the mean of three independent experiments ±S.E.M. The asterisk denotes statistical significance (p=0.05) in comparison to controls.
as §2, §3
(§5) Immunoblot, ribonzuclease protection, and cell death assays. Immunoblot analyses for Gal4 (RK5C1, Santa Cruz Biotechnology), p53 (DO-1, Oncogene Research), and HIF-1α (OZ15 (Arany et al., Proc. Natl. Acad. Sci. U.S.A. 93:12969–12973, 1996)) were performed using standard techniques (Ausubel et al., Eds., Current Protocols in Molecular Biology (Wiley-Interscience, New York, 1988)). Total RNA was isolated (RNeasy, Qiagen), and ribonuclease protection assays performed utilizing a multiprobe human angiogenesis kit (RiboQuant, Pharmingen) according to the manufacturer's instructions. Cell death was measured by staining with anti-Annexin V antibody (Pharmingen) and 7-amino-actinomycin D (Pharmingen), and analyzed by flow cytometry according to the manufacturer's instructions.

[6] = system: HIF-1α; assay: Immunoblot for HIF-1α abundance; format: cell-based; settings: hypoxic conditions
Procedure: as §5

[7] = system: STAT2; assay: Gal4-luciferase reporter, p300/CBP dependent transactivation (Gal4-STAT2); format: cell-based; settings: TAD-C polypeptide overexpression, Hep3B cells
Procedure: as §4, §1

[8] = system: HCT116 cells; assay: Nude mouse xenograft tumor model, HCT116; format: in vivo, nude mice; settings: for histological examination of the injection site / tumor: HCT116, 3 weeks of growth
Source text: FIG. 3A is a graph showing the in vivo effect of TADC expression. HCT116 cells were infected at an MOI of 5 with retroviruses encoding Gal4 alone (circle), Gal4 fused with mutant TAD-C polypeptide (Gal4-MUT, square) or with wild type TAD-C polypeptide (triangle). A total of 4×10^6 cells were implanted subcutaneously into nude mice. The results are expressed as the mean ±S.D. of 8–10 independent tumors.
FIGS. 4A and 4B are a series of photographs showing that the in vivo effect of TAD-C expression can be rescued by a CH1-independent HIF-1α allele. Tumors arising from HCT116 cells infected with retrovirus encoding Gal4 fused with mutant (MUT) or wild type TAD-C polypeptide at an MOI of 5 were excised after 3 weeks of growth. Paraffin sections were stained with H&E or immunostained for Gal4 or CD31/PECAM. The subcutaneous tissue (SQ), tumor (Tum), and necrotic areas (Nec) are indicated.
FIG. 4C is a graph showing the results of experiments in which HCT116 cells were infected with either pBABE-puro-VP16 (VP16) or pBABE-puro-HIF-VP16 (HIFVP), and selected with puromycin. These cells were then infected with retrovirus encoding either Gal4-MUT or Gal4-TADC at an MOI of 5. A total of 6×10^6 cells were implanted in nude mice. Results are the mean of 8 independent tumors ±S.D.
as §3
Xenograft tumor model. Nude mice (Taconic) were obtained at 6–8 weeks of age and allowed to acclimate for 1 week prior to tumor implantation. Tumor cells were allowed to recover for at least 48 hours after retroviral infection prior to implantation into nude mice. The indicated number of tumor cells was injected subcutaneously and bilaterally into the flanks of mice. Tumors were measured with calipers, and tumor volume was calculated as 0.5×L×W^2. For each cell line, at least two independent experiments were performed. Where indicated, tumors were excised and fixed in 4% paraformaldehyde in phosphate buffered saline or minced and lysed in RIPA/300 buffer (50 mM Tris-HCl (pH 8.0), 300 mM NaCl, 1% NP40, 0.5% DOC, 0.1% SDS, 1 mM DTT, protease inhibitors). Immunostaining with anti-Gal4 (IKE, Santa Cruz Biotechnology) or anti-CD31 (MEC13.3, Pharmingen) was performed using the Vectastain ABC Elite system (Vector) according to the manufacturer's instructions.

[9] = system: SRC-1; assay: Gal4-luciferase reporter, p300/CBP dependent transactivation (Gal4-SRC1); format: cell-based; settings: TAD-C polypeptide overexpression, Hep3B cells
Procedure: as §4, §1

[10] = system: VEGF mRNA in HepG2 cells; assay: Ribonuclease protection assay for VEGF mRNA; format: cell-based; settings: HepG2, retrovirus MOI 10, both normoxic and hypoxic conditions
Procedure: In this assay, HepG2 cells were infected at an MOI of 10 with retroviruses encoding Gal4 alone or Gal4 fused with wild type or mutant (MUT) TAD-C polypeptide. Cells were exposed to either ambient or 1% (Hypoxia) oxygen for 18 hours prior to preparation of total RNA.
To facilitate expression of the relevant TAD-C and mutant polypeptides, VSV-G pseudotyped retroviruses were engineered to express Gal14 carrier protein alone or Gal4 fused to either wild type or mutant TAD-C polypeptide. HepG2 cells were infected with these retroviruses at a multiplicity of infection (MOI) of 10, exposed to either normal or hypoxic conditions, and VEGF mRNA levels were determined by a ribonuclease protection assay. Equivalent expression of Gal4 and the Gal4 fused polypeptides was regularly achieved in this and related experiments (for example, see FIG. 3A, inset). […] The overall abundance of HIF-1α under hypoxic conditions was not altered by introduction of TAD-C.
Hypoxia. Hypoxia was achieved by incubating cells in a humidified environment at 37° C. in a Cellstar three gas incubator (Harris) maintained at 10% CO2 and 1% O2. […]
Immunoblot, ribonzuclease protection, and cell death assays. […] Cell death was measured by staining with anti-Annexin V antibody (Pharmingen) and 7-amino-actinomycin D (Pharmingen), and analyzed by flow cytometry according to the manufacturer's instructions.

[11] = system: SREBP2; assay: Gal4-luciferase reporter, p300/CBP dependent transactivation (Gal4-SREBP2); format: cell-based; settings: TAD-C polypeptide overexpression, Hep3B cells
Procedure: as §4, §1

[12] = target: HIF-1α/p300 CH1 interaction (Homo sapiens, UniProt Q09472); settings: cited from earlier work
HIF-1α/p300 CH1 interaction, sequence (Q09472 whole entry): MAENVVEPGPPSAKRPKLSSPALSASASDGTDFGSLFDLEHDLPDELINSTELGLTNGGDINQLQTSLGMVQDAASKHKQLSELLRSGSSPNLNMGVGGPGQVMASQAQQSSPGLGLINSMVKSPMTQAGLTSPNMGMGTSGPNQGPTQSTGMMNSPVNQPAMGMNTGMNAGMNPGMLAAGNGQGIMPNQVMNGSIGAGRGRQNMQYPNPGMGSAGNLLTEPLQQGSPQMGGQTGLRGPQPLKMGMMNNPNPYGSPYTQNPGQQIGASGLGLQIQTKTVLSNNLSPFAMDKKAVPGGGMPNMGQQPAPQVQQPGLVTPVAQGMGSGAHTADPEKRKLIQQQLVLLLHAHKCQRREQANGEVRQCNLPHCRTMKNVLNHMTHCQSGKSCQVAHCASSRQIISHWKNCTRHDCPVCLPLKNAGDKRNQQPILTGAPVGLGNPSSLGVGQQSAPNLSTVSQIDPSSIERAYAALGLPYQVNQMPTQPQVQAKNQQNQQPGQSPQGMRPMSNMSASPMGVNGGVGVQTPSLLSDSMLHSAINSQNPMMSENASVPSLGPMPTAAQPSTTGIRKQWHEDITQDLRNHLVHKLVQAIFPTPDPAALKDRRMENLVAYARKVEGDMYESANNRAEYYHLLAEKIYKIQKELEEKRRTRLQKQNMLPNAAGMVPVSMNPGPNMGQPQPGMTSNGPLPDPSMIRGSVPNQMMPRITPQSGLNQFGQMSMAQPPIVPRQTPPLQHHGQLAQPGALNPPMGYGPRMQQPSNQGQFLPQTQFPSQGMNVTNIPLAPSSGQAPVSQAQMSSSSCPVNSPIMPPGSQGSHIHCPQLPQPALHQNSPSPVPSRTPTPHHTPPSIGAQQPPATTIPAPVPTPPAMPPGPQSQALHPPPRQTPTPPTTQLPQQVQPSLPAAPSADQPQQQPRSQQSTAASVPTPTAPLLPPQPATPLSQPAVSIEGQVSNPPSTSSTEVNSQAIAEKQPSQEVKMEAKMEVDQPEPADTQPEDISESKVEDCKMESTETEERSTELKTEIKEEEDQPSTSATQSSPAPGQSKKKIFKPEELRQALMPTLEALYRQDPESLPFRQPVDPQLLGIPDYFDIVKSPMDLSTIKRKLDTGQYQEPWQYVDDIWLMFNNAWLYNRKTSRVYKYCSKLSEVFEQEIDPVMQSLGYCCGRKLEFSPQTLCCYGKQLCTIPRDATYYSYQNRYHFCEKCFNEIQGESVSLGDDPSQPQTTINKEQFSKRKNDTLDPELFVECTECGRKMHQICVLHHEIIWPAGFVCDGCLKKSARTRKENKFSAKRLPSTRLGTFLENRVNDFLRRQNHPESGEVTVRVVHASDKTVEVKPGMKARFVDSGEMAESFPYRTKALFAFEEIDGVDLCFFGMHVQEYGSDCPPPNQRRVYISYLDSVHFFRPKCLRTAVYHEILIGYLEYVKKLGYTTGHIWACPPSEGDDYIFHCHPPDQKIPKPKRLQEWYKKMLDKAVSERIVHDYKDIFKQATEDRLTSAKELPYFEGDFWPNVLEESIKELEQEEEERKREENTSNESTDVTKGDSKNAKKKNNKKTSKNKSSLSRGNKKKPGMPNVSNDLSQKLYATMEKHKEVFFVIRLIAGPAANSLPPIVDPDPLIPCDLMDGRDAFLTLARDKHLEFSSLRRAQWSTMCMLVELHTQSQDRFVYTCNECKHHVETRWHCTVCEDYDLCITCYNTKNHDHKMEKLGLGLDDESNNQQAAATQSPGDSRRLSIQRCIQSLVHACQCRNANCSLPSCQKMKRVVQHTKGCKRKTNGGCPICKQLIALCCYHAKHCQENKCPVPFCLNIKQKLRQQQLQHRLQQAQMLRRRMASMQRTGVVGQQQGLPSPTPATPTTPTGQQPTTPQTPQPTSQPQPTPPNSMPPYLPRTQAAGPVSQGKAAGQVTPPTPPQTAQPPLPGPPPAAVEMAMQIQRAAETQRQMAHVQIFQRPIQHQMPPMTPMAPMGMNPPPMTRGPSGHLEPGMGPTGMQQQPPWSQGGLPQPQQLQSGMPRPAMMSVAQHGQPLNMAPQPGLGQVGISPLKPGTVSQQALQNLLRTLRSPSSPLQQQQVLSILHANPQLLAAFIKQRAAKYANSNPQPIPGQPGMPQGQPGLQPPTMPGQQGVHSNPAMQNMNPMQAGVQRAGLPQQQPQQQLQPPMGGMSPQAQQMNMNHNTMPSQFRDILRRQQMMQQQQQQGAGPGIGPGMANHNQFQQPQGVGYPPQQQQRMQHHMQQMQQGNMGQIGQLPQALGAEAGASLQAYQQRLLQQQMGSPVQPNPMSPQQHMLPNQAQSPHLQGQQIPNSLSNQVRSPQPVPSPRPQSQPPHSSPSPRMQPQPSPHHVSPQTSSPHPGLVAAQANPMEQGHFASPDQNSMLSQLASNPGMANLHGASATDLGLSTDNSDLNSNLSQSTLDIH

T1 sequence (Q09472 302-443): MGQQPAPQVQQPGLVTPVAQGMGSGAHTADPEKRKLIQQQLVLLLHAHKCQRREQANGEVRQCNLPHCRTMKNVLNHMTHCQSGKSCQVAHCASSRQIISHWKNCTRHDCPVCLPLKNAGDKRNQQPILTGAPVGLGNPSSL

Molecule: CH1: polypeptide corresponding to the minimal HIF-1α binding domain of p300 (CH1 domain, amino acids 302–418)
- hypoxia-inducible reporter activity [1]: attenuation

Molecule: TAD-C polypeptide: wild type TAD-C polypeptide (amino acids 786–826 of HIF-1α), expressed fused to Gal4 or thioredoxin-constrained
- tumor growth [2]: significantly and reproducibly attenuated
- effect on RAR transcriptional activity [3]: no effect
- binding to GST-CH1 [4]: necessary and sufficient for binding
- cell death ([5]; HepG2, hypoxic conditions (1% oxygen, 36 hours), versus Gal4 alone or mutant): slightly, but significantly, increased
- cell growth ([5]; HepG2, normoxic conditions): not affected
- cell survival ([5]; HepG2, normoxic conditions): essentially the same
- hypoxia-inducible reporter activity [1]: attenuation
- overall abundance of HIF-1α [6]: not altered
- transcriptional activity of STAT2 [7]: inhibit
- histological examination of the injection site / tumor [8]: large areas of central necrosis with a small rim of viable tumor cells
- tumor growth ([8]; HCT116, coexpression of HIF-VP16, TAD-C versus mutant polypeptide): identical tumor growth
- tumor growth ([8]; HCT116, coexpression of unfused VP16, versus mutant polypeptide): attenuated
- tumor growth ([8]; HCT116 cells expressing the polypeptide, versus Gal4 alone or Gal4-mutant): significantly and reproducibly attenuated
- effect on SRC-1 transcriptional activity [9]: no effect
- VEGF mRNA abundance [10]: reproducibly diminished
- effect on SREBP2 transcriptional activity [11]: no effect

Molecule: mutant TAD-C polypeptide: eight residue truncated mutant of TAD-C (amino acids 786–818 of HIF-1α), unable to bind GST-CH1 (SMDESGLPQLTSYDCEVNAPIQGSRNLLQGEEL; also: fused to Gal4; UniProt Q16665 786-818, looked up, fragment)
- binding to GST-CH1 [4]: unable to bind
- cell survival ([5]; HepG2, normoxic conditions): essentially the same
- hypoxia-inducible reporter activity [1]: failed to exert a dominant-negative effect
- histological examination of the injection site / tumor [8]: small areas of necrosis, but vast areas of viable tumor

B1: p35srj: protein with negative regulatory function on the HIF-1 pathway; binds p300/CBP, blocks HIF-1α/p300 CH1 interaction (protein, UniProt Q99967 1-270, looked up)
Cbp/p300-interacting …: MADHMMAMNHGRFPDGTNGLHHHPAHRMGMGQFPSPHHHQQQQPQHAFNALMGEHIHYGAGNMNATSGIRHAMGPGTVNGGHPPSALAPAARFNNSQFMGPPVASQGGSLPASMQLQKLNNQYFNHHPYPHNHYMPDLHPAAGHQMNGTNQHFRDCNPKHSGGSSTPGGSGGSSTPGGSGSSSGGGAGSSNSGGGSGSGNMPASVAHVPAAMLPPNVIDTDFIDEEVLMSLVIEMGLDRIKELPELWLGQNEFDFMTDFVCKQQPSRVSC
- HIF-1 transactivation [12]: inhibits
